The values that follow are results of earlier work, collected in patent publication US8679533B2, “Pramipexole once-daily dosage form” (Pharmacia Corporation, priority 2002, dated 2014).

The conditions of the data set: dihydrochloride salt, 20-25° C.

Regarding `CCCN[C@H]1CCc2nc(N)sc2C1` [pramipexole, (S)-2-amino-4,5,6,7-tetrahydro-6-(propylamino)-benzothiazole], the solubility in water result was “about 200 mg/ml”.
